Assay: Solubilisation of baicalin in alkaline water with or without polyquaternium-67
Type: physicochemical
Conditions: pH 10
Procedure: In Examples 1-3, a polyquaternium-67 (PQ-67) was dissolved in water to prepare a PQ-67 aqueous solution. Then, the pH of the solution was adjusted to 10 by adding 1M NaOH aqueous solution. Next, baicalin was added to the alkaline solution as much as possible. In the compositions according to Examples 1-3, […] was able to be solubilized up to an amount of 0.1% by weight, 0.2% by weight and 0.25% by weight, respectively, relative to the total weight of the composition.
On the other hand, in the composition according to Comparative Example 1 including no PQ-67, the solubilized amount of […] was limited only to 0.025% by weight relative to the total weight of the composition.
Thus, by forming a complex by the electrostatic interaction, the solubility of baicalin increased up to 10 folds.

O=C(O)[C@H]1O[C@@H](Oc2cc3oc(-c4ccccc4)cc(=O)c3c(O)c2O)[C@H](O)[C@@H](O)[C@@H]1O [baicalin]
increase of solubility of baicalin by complex formation with PQ-67: up to 10 folds

Reference: patent publication US20230048170A1, “COMPOSITION INCLUDING CATIONIC POLYSACCHARIDE AND ANIONIC ANTIOXIDANT” (priority 2019, published 2023)
